Reference: patent US20250197374A1, “WEE1 DEGRADING COMPOUNDS AND USES THEREOF” (BRISTOL-MYERS SQUIBB COMPANY, priority 2023, published 2025)
Like-named read-outs stand apart in the source and are kept apart here.

What was measured:
Assay type in all cases: cell-based
MKN45 cells = assay: MKN45 cell proliferation assay (Cell-Titer-Glo, 120 hr); conditions: for EC50: read-out: MKN45 Cell Prolif. 120 hr EC50; for MKN45 Cell Prolif. 120 hr YMin (%): minimal percent of DMSO control observed
Procedure, shortened: (§1)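 Growth inhibition was read as CellTiter-Glo luminescence after 120 h at 37 °C in RPMI/10% FBS, with 400 MKN45 or 800 MDA-MB-231 cells seeded per well. Compounds were tested in 10-point half-log series starting at 1 or 10 uM (0.1% DMSO), in triplicate for MKN45 and duplicate for MDA-MB-231. EC50 values are four-parameter fits to %DMSO control, and Ymin-obs is the minimal observed %DMSO.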

MDA-MB-231 cells = assay: MDA-MB-231 cell proliferation assay (Cell-Titer-Glo, 120 hr); conditions: for EC50: read-out: MDA-MB 231 Cell Prolif. 120 hr EC50; for MDA-MB 231 Cell Prolif. 120 hr YMin (%): minimal percent of DMSO control observed
Procedure, shortened: as §1

WEE1 = target: T1, WEE1 (Homo sapiens, UniProt P30291+Q96SW2); assay: WEE1-ePL degradation assay (293T-LentiX, InCELL Hunter luminescence, 4 hr); conditions: for DC50: LentiX-HEK293T cells expressing WEE1-ePL, 4 hr incubation, read-out: 293T-LentiX WEE1-ePL Degradation 4 hr EC50; for 293T-LentiX WEE1-ePL Degradation 4 hr YMin (%): lower limit of fit, % of DMSO control signal remaining
T1 construct: C-terminal ePL-tagged (DiscoverX, Fremont, CA) full-length WEE1 expression construct; expressed in transfected cells; host or cells: LentiX-HEK293T (Invitrogen), lentivirally transduced; the cells also over-express GSPT1-GN
Procedure, shortened: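 EC50 comes from a four-parameter logistic fit of ePL luminescence (InCELL Hunter), with DMSO control defining Ymax. Compounds ran as 10-point 3-fold dilutions from 1 or 10 µM for 4 h at 37 °C. Cells were HEK293T-LentiX with ePL-tagged full-length WEE1 and over-expressed Cereblon-resistant GSPT1-GN.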

[1] = Homo sapiens, MDA-MB-231, 120 h

T1 sequence (P30291 whole entry): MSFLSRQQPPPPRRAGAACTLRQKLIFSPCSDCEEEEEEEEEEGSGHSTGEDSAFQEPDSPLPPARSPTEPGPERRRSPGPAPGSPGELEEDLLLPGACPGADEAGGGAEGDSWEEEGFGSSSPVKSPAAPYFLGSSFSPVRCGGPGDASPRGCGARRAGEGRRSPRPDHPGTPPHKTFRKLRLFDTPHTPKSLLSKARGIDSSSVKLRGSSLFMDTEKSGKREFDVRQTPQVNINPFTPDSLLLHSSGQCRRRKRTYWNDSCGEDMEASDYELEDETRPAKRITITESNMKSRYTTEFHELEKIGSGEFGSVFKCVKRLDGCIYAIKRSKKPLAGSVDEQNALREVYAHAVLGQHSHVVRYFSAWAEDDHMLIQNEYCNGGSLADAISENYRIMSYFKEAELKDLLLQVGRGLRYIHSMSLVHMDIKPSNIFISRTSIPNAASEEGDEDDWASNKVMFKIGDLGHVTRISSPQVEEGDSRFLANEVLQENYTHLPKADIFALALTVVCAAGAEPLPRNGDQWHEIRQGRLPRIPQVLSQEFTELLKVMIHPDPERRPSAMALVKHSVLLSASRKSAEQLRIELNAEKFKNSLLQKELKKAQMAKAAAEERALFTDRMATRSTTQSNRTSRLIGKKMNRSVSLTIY
T1 sequence (Q96SW2 whole entry): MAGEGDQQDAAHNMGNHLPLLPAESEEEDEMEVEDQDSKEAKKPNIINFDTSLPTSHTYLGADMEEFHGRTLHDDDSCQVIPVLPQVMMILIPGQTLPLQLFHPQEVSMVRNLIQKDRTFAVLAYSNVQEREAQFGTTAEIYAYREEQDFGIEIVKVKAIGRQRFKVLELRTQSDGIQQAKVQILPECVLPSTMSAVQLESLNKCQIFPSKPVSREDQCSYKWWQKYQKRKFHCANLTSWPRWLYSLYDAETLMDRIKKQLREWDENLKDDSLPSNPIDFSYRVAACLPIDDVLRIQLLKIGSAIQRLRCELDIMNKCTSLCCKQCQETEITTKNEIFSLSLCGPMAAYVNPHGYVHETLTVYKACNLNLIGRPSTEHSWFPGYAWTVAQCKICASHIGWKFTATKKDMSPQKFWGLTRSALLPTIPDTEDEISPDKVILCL
T1 sequence (Q16531 whole entry partner): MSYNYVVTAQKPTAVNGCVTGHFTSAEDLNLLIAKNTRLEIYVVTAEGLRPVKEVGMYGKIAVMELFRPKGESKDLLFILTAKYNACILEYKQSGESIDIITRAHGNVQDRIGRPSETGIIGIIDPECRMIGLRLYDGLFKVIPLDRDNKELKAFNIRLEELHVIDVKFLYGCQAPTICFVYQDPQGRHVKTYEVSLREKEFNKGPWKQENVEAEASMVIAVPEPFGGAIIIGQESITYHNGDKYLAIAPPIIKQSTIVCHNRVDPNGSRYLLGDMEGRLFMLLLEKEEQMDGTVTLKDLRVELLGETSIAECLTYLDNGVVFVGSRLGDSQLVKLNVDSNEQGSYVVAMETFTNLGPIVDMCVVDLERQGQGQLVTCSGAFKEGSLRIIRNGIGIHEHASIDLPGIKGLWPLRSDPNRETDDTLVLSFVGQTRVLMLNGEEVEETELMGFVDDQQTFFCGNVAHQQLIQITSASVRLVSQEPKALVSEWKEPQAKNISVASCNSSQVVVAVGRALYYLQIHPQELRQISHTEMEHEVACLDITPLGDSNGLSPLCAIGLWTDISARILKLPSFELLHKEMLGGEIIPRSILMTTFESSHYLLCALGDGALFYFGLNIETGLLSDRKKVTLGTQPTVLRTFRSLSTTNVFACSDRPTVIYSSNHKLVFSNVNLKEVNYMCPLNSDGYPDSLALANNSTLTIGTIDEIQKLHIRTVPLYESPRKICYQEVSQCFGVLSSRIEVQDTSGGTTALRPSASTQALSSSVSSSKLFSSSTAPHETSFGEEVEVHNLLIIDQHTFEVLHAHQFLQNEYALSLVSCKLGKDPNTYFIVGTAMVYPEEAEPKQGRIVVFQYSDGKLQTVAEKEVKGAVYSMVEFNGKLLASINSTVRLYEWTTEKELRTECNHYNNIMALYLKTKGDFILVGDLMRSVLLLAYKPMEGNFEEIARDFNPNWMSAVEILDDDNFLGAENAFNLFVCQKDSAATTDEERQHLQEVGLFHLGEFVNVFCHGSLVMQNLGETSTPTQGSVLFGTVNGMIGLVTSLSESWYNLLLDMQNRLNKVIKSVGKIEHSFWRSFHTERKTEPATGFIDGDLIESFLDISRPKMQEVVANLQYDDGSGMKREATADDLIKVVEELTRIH

Row | EC50 (MKN45 cells; Homo sapiens, MKN-45, 120 h) [nM] | EC50 (MDA-MB-231 cells; [1]) [nM] | DC50 (WEE1) [nM] | 293T-LentiX WEE1-ePL Degradation 4 hr YMin (%) (WEE1) | EC50 (MKN45 cells) [nM] | EC50 (MDA-MB-231 cells) [nM] | Compound | MKN45 Cell Prolif. 120 hr YMin (%) (MKN45 cells) | MDA-MB 231 Cell Prolif. 120 hr YMin (%) (MDA-MB-231 cells)
1 | 5 | 64 | 1 | 32.9 | – | – | O=C1CC[C@H](N2Cc3cc(O[C@H]4CCN(Cc5cc(F)c6nc(N7C[C@@H]8CCO[C@@H]8C7)ccc6c5)C4)ccc3C2=O)C(=O)N1 (single isomer, unassigned) [Example 81, (S)-3-(5-(((S)-1-((8-fluoro-2-((3aS*,6aS*)-hexahydro-5H-furo[2,3-c]pyrrol-5-yl)quinolin-6-yl)methyl)pyrrolidin-3-yl)oxy)-1-oxoisoindolin-2-yl)piperidine-2,6-dione] | 15.5 | 66.9
2 | 1 | 22 | 1 | 29.8 | – | – | COC[C@@H]1CN(Cc2cc(F)c3nc(N4CCC(OC)C4)ccc3c2)C[C@H]1Oc1ccc2c(c1)CN([C@H]1CCC(=O)NC1=O)C2=O (single isomer, unassigned) [Example 97, (S)-3-(5-(((3S,4S)-1-((8-fluoro-2-((R*)-3-methoxypyrrolidin-1-yl)quinolin-6-yl)methyl)-4-(methoxymethyl)pyrrolidin-3-yl)oxy)-1-oxoisoindolin-2-yl)piperidine-2,6-dione] | 8.7 | 22.0
3 | – | – | 1 | 29.4 | 1 | 13 | COC[C@@H]1CN(Cc2cc(F)c3nc(N4CCC(OC)C4)ccc3c2)C[C@H]1Oc1ccc2c(c1)CN([C@H]1CCC(=O)NC1=O)C2=O (single isomer, unassigned) [Example 98, (S)-3-(5-(((3S,4S)-1-((8-fluoro-2-((S*)-3-methoxypyrrolidin-1-yl)quinolin-6-yl)methyl)-4-(methoxymethyl)pyrrolidin-3-yl)oxy)-1-oxoisoindolin-2-yl)piperidine-2,6-dione] | 9.0 | 25.1

The next lines start with the compound.

Row | Compound | EC50 (MKN45 cells; Homo sapiens, MKN-45, 120 h) [nM] | EC50 (MDA-MB-231 cells; [1]) [nM] | DC50 (WEE1) [nM] | 293T-LentiX WEE1-ePL Degradation 4 hr YMin (%) (WEE1) | EC50 (MKN45 cells) [nM] | EC50 (MDA-MB-231 cells) [nM] | MKN45 Cell Prolif. 120 hr YMin (%) (MKN45 cells) | MDA-MB 231 Cell Prolif. 120 hr YMin (%) (MDA-MB-231 cells)
4 | O=C1CC[C@H](N2Cc3cc(O[C@H]4CCN(Cc5cc(F)c6nc(N7C[C@@H]8CCO[C@@H]8C7)ncc6c5)C4)ccc3C2=O)C(=O)N1 (single isomer, unassigned) [Example 19, (S)-3-(5-(((S)-1-((8-fluoro-2-((3aS*,6aS*)-hexahydro-5H-furo[2,3-c]pyrrol-5-yl)quinazolin-6-yl)methyl)pyrrolidin-3-yl)oxy)-1-oxoisoindolin-2-yl)piperidine-2,6-dione] | 12 | 104 | 6 | 31.4 | – | – | 10.1 | 58.4
5 | O=C1CCC(N2C(=O)c3ccc(O[C@H]4CCN(Cc5cc(F)c6nc(C7CCOCC7)ccc6c5)C4)cc3C2=O)C(=O)N1 (single isomer, unassigned) [Example 26, 2-((R*)-2,6-dioxopiperidin-3-yl)-5-(((S)-1-((8-fluoro-2-(tetrahydro-2H-pyran-4-yl)quinolin-6-yl)methyl)pyrrolidin-3-yl)oxy)isoindoline-1,3-dione] | – | – | 8 | 32.8 | 39 | 999 | 12.3 | 53.8
6 | COC[C@@H]1CN(Cc2cc(F)c3c(ccn3C(=O)C3CCOCC3)c2)C[C@H]1Oc1ccc2c(c1)CN([C@H]1CCC(=O)NC1=O)C2=O [Example 24, (3S)-3-(5-{[(3S,4S)-1-{[7-fluoro-1-(oxane-4-carbonyl)-1H-indol-5-yl]methyl}-4-(methoxymethyl)pyrrolidin-3-yl]oxy}-1-oxo-2,3-dihydro-1H-isoindol-2-yl)piperidine-2,6-dione] | 50 | 68 | 5 | 37.7 | – | – | 49.1 | 87.7
7 | COC[C@@H]1CN(Cc2ccc3c(ccn3C(=O)C3CCOCC3)c2)C[C@H]1Oc1ccc2c(c1)CN([C@H]1CCC(=O)NC1=O)C2=O [Example 25, (3S)-3-(5-{[(3S,4S)-4-(methoxymethyl)-1-{[1-(oxane-4-carbonyl)-1H-indol-5-yl]methyl}pyrrolidin-3-yl]oxy}-1-oxo-2,3-dihydro-1H-isoindol-2-yl)piperidine-2,6-dione] | 35 | 128 | 2 | 39.0 | – | – | 25.4 | 80.7
8 | COC[C@@H]1CN(Cc2cc3ccc(N4CCOCC4)cc3cn2)C[C@H]1Oc1ccc2c(c1)CN([C@H]1CCC(=O)NC1=O)C2=O [Example 28, (3S)-3-(5-{[(3S,4S)-4-(methoxymethyl)-1-{[7-(morpholin-4-yl)isoquinolin-3-yl]methyl}pyrrolidin-3-yl]oxy}-1-oxo-2,3-dihydro-1H-isoindol-2-yl)piperidine-2,6-dione] | 1 | 48 | 1 | 29.1 | – | – | 11.2 | 22.1
9 | COC[C@@H]1CN(Cc2ccc3ncc(N4CCOCC4)cc3c2)C[C@H]1Oc1ccc2c(c1)CN([C@H]1CCC(=O)NC1=O)C2=O [Example 29, (3S)-3-(5-{[(3S,4S)-4-(methoxymethyl)-1-{[3-(morpholin-4-yl)quinolin-6-yl]methyl}pyrrolidin-3-yl]oxy}-1-oxo-2,3-dihydro-1H-isoindol-2-yl)piperidine-2,6-dione] | 2 | 25 | 1 | 26.4 | – | – | 8.8 | 17.8
10 | COC[C@@H]1CN(Cc2cc(F)c3ncc(N4CCOCC4)cc3c2)C[C@H]1Oc1ccc2c(c1)CN([C@H]1CCC(=O)NC1=O)C2=O [Example 30, (S)-3-(5-(((3S,4S)-1-((8-fluoro-3-morpholinoquinolin-6-yl)methyl)-4-(methoxymethyl)pyrrolidin-3-yl)oxy)-1-oxoisoindolin-2-yl)piperidine-2,6-dione] | 1 | 14 | 1 | 27.9 | – | – | 7.8 | 12.7
11 | COC[C@@H]1CN(Cc2cc(F)c3nc(C(C)(C)O)ccc3c2)C[C@H]1Oc1ccc2c(c1)CN([C@H]1CCC(=O)NC1=O)C2=O [Example 32, (3S)-3-(5-{[(3S,4S)-1-{[8-fluoro-2-(2-hydroxypropan-2-yl)quinolin-6-yl]methyl}-4-(methoxymethyl)pyrrolidin-3-yl]oxy}-1-oxo-2,3-dihydro-1H-isoindol-2-yl)piperidine-2,6-dione] | 2 | 67 | 1 | 33.4 | – | – | 11.2 | 46.8
